In paper PMC12473906, “Comparing the Altis RepliGut Organoid System to MDCK Monolayers in Predicting the Oral Absorption of Lenalidomide” (Pharmaceutics, 2025):

Key:
[1] = cited from earlier work
[2] = gMDCK (P-gp knockout MDCK) monolayer permeability assay; details: dog, MDCK
[3] = test system: MDCK cells and other traditional in vitro systems; details: cited from earlier work
[4] = Lenalidomide Permeability in gMDCK Cells, FaSSIF
[5] = Lenalidomide Permeability in gMDCK Cells, FeSSIF
[6] = pH 7.4, Lenalidomide Permeability in gMDCK Cells, 4% BSA in receiver compartment
[7] = pH 7.4, Lenalidomide Permeability in gMDCK Cells, shaking (1000 rpm)
[8] = pH 7.4, Lenalidomide Permeability in gMDCK Cells, typical assay conditions

Papp at 3 h, 10 µM [2, 4]: 0.27 ×10⁻⁶ cm/s
Papp at 3 h, 50 µM [2, 4]: 0.28 ×10⁻⁶ cm/s
Papp at 3 h, 250 µM [2, 4]: 0.17 ×10⁻⁶ cm/s
Papp at 3 h, 500 µM ([2]; Lenalidomide Permeability in gMDCK Cells, FaSSIF, 500 uM): 0.13 ×10⁻⁶ cm/s
Papp at 3 h, 10 µM [2, 5]: 0.07 ×10⁻⁶ cm/s
Papp at 3 h, 50 µM [2, 5]: 0.14 ×10⁻⁶ cm/s
Papp at 3 h, 250 µM [2, 5]: 0.1 ×10⁻⁶ cm/s
Papp at 3 h, 500 µM ([2]; Lenalidomide Permeability in gMDCK Cells, FeSSIF, 500 uM): 0.14 ×10⁻⁶ cm/s
Papp A→B at 3 h ([2]; pH 7.4): 0.21 ×10⁻⁶ cm/s
Papp B→A at 3 h ([2]; pH 7.4): 0.13 ×10⁻⁶ cm/s
efflux ratio at 3 h ([2]; pH 7.4): 0.62
Papp at 3 h, 10 µM [2, 6]: 0.12 ×10⁻⁶ cm/s
Papp at 3 h, 50 µM [2, 6]: 0.16 ×10⁻⁶ cm/s
Papp at 3 h, 250 µM [2, 6]: 0.15 ×10⁻⁶ cm/s
Papp at 3 h, 500 µM ([2]; pH 7.4, Lenalidomide Permeability in gMDCK Cells, 4% BSA in receiver compartment, 500 uM): 0.15 ×10⁻⁶ cm/s
Papp at 3 h, 10 µM [2, 7]: 0.03 ×10⁻⁶ cm/s
Papp at 3 h, 50 µM [2, 7]: 0.03 ×10⁻⁶ cm/s
Papp at 3 h, 250 µM [2, 7]: 0.14 ×10⁻⁶ cm/s
Papp at 3 h, 500 µM ([2]; pH 7.4, Lenalidomide Permeability in gMDCK Cells, shaking (1000 rpm), 500 uM): 0.21 ×10⁻⁶ cm/s
Papp at 3 h, 10 µM [2, 8]: 0.19 ×10⁻⁶ cm/s
Papp at 3 h, 50 µM [2, 8]: 0.22 ×10⁻⁶ cm/s
Papp at 3 h, 250 µM [2, 8]: 0.24 ×10⁻⁶ cm/s
Papp at 3 h, 500 µM ([2]; pH 7.4, Lenalidomide Permeability in gMDCK Cells, typical assay conditions, 500 uM): 0.24 ×10⁻⁶ cm/s
Papp at 3 h ([2]; pH 7.4, apparent permeability (Papp), gMDCK cell monolayers, independent of concentration): ~0.2 ×10⁻⁶ cm/s
Papp at 3 h, 500 µM ([2]; pH 7.4, gMDCK Papp, lenalidomide 500 µM, apical to basolateral, n=3 biological replicates): 0.21 ×10⁻⁶ cm/s
SMILES: Nc1cccc2c1CN(C1CCC(=O)NC1=O)C2=O (stereo not drawn) [Lenalidomide]
LogP (o/w) ([1]; Figure 1, ref PubChem): < 1
pKa ([1]; lower pKa): 2.3
LogP ([1]; ref PubChem): −0.40
BCS class [3]: 3
In vitro permeability [3]: Low
